Target: human TREK-1 (Homo sapiens (Human), UniProt O95069)
Experiment: TREK-1 Thallium (Tl+) flux assay
Format: cell-based
Details: CHO-K1 cells stably expressing human TREK-1

Chain of human TREK-1 (O95069 whole entry): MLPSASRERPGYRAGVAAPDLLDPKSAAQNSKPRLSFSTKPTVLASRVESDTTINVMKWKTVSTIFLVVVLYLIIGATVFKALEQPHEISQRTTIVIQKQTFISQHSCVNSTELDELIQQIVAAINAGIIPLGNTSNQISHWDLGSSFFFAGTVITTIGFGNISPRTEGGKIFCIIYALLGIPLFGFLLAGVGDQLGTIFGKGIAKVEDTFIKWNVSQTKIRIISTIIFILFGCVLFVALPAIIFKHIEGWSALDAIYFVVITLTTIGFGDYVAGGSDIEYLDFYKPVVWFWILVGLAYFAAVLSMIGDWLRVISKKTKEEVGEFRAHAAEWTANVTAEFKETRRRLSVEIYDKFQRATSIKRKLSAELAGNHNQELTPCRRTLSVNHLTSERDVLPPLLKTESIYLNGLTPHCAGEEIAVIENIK

Point of comparison: O=C(Nc1ncc(-c2ccn(-c3ccc(F)cc3)n2)cc1F)c1cc(NC(=O)C2COCCO2)ccc1Cl (stereo not drawn) [Compound 98, N-[4-chloro-3-[[3-fluoro-5-[1-(4-fluorophenyl)pyrazol-3-yl]-2-pyridyl]carbamoyl]phenyl]1,4-dioxane-2-carboxamide], IC50 560 nM. Against it:
- CC(C)(C)OC(=O)Nc1ccc(Cl)c(C(=O)Nc2ncc(-c3cnn(-c4ccccc4)c3)cc2F)c1 [Compound 97, tert-butyl N-[4-chloro-3-[[3-fluoro-5-(1-phenylpyrazol-4-yl)-2-pyridyl]carbamoyl]phenyl]carbamate] — 1.9-fold lower, 290 nM
- Cc1cc(-c2ccc(-c3ccccc3)s2)cnc1NC(=O)c1cc(NC(=O)OC(C)(C)C)ccc1Cl [Compound 99, tert-butyl N-[4-chloro-3-[[3-methyl-5-(5-phenyl-2-thienyl)-2-pyridyl]carbamoyl]phenyl]carbamate] — 3.3-fold higher, 1830 nM
